PubChem BioAssay AID330 (DTP/NCI, 2004)
“And” between values parts separate entries of the source, which are not always exact repeats. Equal values may be shown once. Toxic doses and inconclusive results are not listed. Rule for the calls: active = survival T/C of 150% or more; inactive = T/C below 125% in these data.

Test system: P388 leukemia ip, CD2F1 mice, survival T/C
Test: NCI In Vivo Anticancer Drug Screen. Data for tumor model P388 Leukemia (intraperitoneal) in CD2F1 (CDF1) mice
Conditions: endpoint: median survival time, higher = longer survival
In short: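 Mice carrying the transplanted tumor received test compound or vehicle. Survival was recorded in each group, and the value is the treated-group measurement divided by that of the vehicle-treated control group.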

[1] = dose: 100.0 mg/kg/injection, schedule: Q04DX003 (ip), vehicle: saline
[2] = dose: 200.0 mg/kg/injection, schedule: Q04DX003 (ip), vehicle: saline
[3] = dose: 25.0 mg/kg/injection, schedule: Q01DX009 (ip), vehicle: saline
[4] = dose: 50.0 mg/kg/injection, schedule: Q01DX009 (ip), vehicle: saline
[5] = dose: 100.0 mg/kg/injection, schedule: Q01DX009 (ip), vehicle: saline
[6] = dose: 200.0 mg/kg/injection, schedule: Q01DX009 (ip), vehicle: saline
[7] = dose: 50.0 mg/kg/injection, schedule: Q01DX005 (ip), vehicle: saline with Tween-80
[8] = dose: 100.0 mg/kg/injection, schedule: Q01DX005 (ip), vehicle: saline with Tween-80
[9] = dose: 200.0 mg/kg/injection, schedule: Q01DX005 (ip), vehicle: saline with Tween-80
[10] = dose: 50.0 mg/kg/injection, schedule: Q01DX005 (ip), vehicle: Klucel (hydroxypropylcellulose) (HPC)
[11] = dose: 100.0 mg/kg/injection, schedule: Q01DX005 (ip), vehicle: Klucel (hydroxypropylcellulose) (HPC)
[12] = dose: 200.0 mg/kg/injection, schedule: Q01DX005 (ip), vehicle: Klucel (hydroxypropylcellulose) (HPC)
[13] = dose: 50.0 mg/kg/injection, schedule: Q01DX009 (ip), vehicle: saline with Tween-80
[14] = dose: 100.0 mg/kg/injection, schedule: Q01DX009 (ip), vehicle: saline with Tween-80
[15] = dose: 60.0 mg/kg/injection, schedule: Q01DX005 (ip), vehicle: saline with Tween-80
[16] = dose: 120.0 mg/kg/injection, schedule: Q01DX005 (ip), vehicle: saline with Tween-80
[17] = dose: 240.0 mg/kg/injection, schedule: Q01DX005 (ip), vehicle: saline with Tween-80
[18] = dose: 200.0 mg/kg/injection, schedule: Q01DX009 (ip), vehicle: saline with Tween-80

Measured: T/C

Cc1[nH]c(=O)[nH]c(=O)c1/C=C/C(=O)NC(CO)CSCc1ccccc1 (stereo not given)
inactive: dose: 6.25 mg/kg/injection, schedule: Q01DX009 (ip), vehicle: other 94 % of control | dose: 12.5 mg/kg/injection, schedule: Q01DX009 (ip), vehicle: other 94 % of control | dose: 25.0 mg/kg/injection, schedule: Q01DX009 (ip), vehicle: other 94 % of control | dose: 50.0 mg/kg/injection, schedule: Q01DX009 (ip), vehicle: other 88 % of control | dose: 100.0 mg/kg/injection, schedule: Q01DX009 (ip), vehicle: other 87 % of control | dose: 200.0 mg/kg/injection, schedule: Q01DX009 (ip), vehicle: other 98 % of control | dose: 400.0 mg/kg/injection, schedule: Q01DX009 (ip), vehicle: other 95 % of control

O=c1[nH]oc2c1CCNC2
inactive: [1] 98 % of control | [2] 103 % of control

Cc1ccc2[nH]c(=O)oc(=O)c2c1
inactive: [3] 105 % of control | [4] 107 % of control | dose: 50.0 mg/kg/injection, schedule: Q04DX003 (ip), vehicle: saline with Tween-80 100 % of control | [5] 96 % of control | dose: 100.0 mg/kg/injection, schedule: Q04DX003 (ip), vehicle: saline with Tween-80 108 % of control | [6] 110 % of control | dose: 200.0 mg/kg/injection, schedule: Q04DX003 (ip), vehicle: saline with Tween-80 108 % of control

CCC(CC)CS(=O)(=O)OCCCCOS(=O)(=O)CC(CC)CC
inactive: dose: 50.0 mg/kg/injection, schedule: Q01DX005 (ip), vehicle: saline 99 % of control | dose: 100.0 mg/kg/injection, schedule: Q01DX005 (ip), vehicle: saline 107 % of control | dose: 200.0 mg/kg/injection, schedule: Q01DX005 (ip), vehicle: saline 111 % of control

COC(=O)c1c(C)ccc2c(O)c3c(cc12)C(=O)c1c2c(cc(O)c1C3=O)C1(C)OC(C)(O2)C(O)C(N(C)C)C1O (stereo not given)
inactive: dose: 25.0 mg/kg/injection, schedule: Q01DX010 (ip), vehicle: saline 100 % of control | dose: 50.0 mg/kg/injection, schedule: Q01DX010 (ip), vehicle: saline 100 % of control | dose: 100.0 mg/kg/injection, schedule: Q01DX010 (ip), vehicle: saline 100 % of control | dose: 200.0 mg/kg/injection, schedule: Q01DX010 (ip), vehicle: saline 100 % of control | dose: 400.0 mg/kg/injection, schedule: Q01DX010 (ip), vehicle: saline 100 % of control

C=C/C=C/NC(=O)N1CCCC1
inactive: dose: 100.0 mg/kg/injection, schedule: Q04DX002 (ip), vehicle: suspension in saline 102 % of control | dose: 200.0 mg/kg/injection, schedule: Q04DX002 (ip), vehicle: suspension in saline 102 % of control | dose: 400.0 mg/kg/injection, schedule: Q04DX002 (ip), vehicle: suspension in saline 105 % of control

CCOC(=O)/N=C(/NC(=O)OCC)N1CCN(c2ccnc3cc(Cl)ccc23)CC1
inactive: [7] 98 % of control | [8] 97 % of control | [9] 91 % of control

Nc1ccc2cc(Cl)[nH]c(=O)c2c1
inactive: [10] 100 % of control | [11] 94 % of control | [12] 97 % of control

CC1(C)C=Cc2c(O)c(C(=O)/C=C/c3ccccc3)c3c(c2O1)C=CC(C)(C)O3
inactive: dose: 5.25 mg/kg/injection, schedule: Q01DX005 (ip), vehicle: Klucel (hydroxypropylcellulose) (HPC) 100 % of control | dose: 10.5 mg/kg/injection, schedule: Q01DX005 (ip), vehicle: Klucel (hydroxypropylcellulose) (HPC) 95 % of control | dose: 21.0 mg/kg/injection, schedule: Q01DX005 (ip), vehicle: Klucel (hydroxypropylcellulose) (HPC) 97 % of control | dose: 42.0 mg/kg/injection, schedule: Q01DX005 (ip), vehicle: Klucel (hydroxypropylcellulose) (HPC) 86 % of control

O=C(N/N=C/c1ccccc1O)C(F)(F)F
inactive: [13] 86 % of control | [14] 86 % of control

CCNc1snc2c1c(=O)[nH]c(=O)n2Cc1ccccc1
inactive: dose: 12.5 mg/kg/injection, schedule: Q01DX009 (ip), vehicle: saline 86 % of control | [3] 90 % of control | [4] 98 % of control and 92 % of control

Cc1n[nH]c(=O)n2c1nc1ccccc12
inactive: dose: 60.0 mg/kg/injection, schedule: Q01DX005 (ip), vehicle: Klucel (hydroxypropylcellulose) (HPC) 95 % of control | dose: 120.0 mg/kg/injection, schedule: Q01DX005 (ip), vehicle: Klucel (hydroxypropylcellulose) (HPC) 95 % of control | dose: 240.0 mg/kg/injection, schedule: Q01DX005 (ip), vehicle: Klucel (hydroxypropylcellulose) (HPC) 92 % of control

FC(F)(F)c1cccc(COCCN2CCN(Cc3cccc(C(F)(F)F)c3)CC2)c1
inactive: [15] 103 % of control | [16] 95 % of control | [17] 112 % of control

O=c1oc(-c2ccccc2)cc(N2CCCCC2)c1Cl
inactive: [13] 97 % of control | [14] 97 % of control | [18] 97 % of control

CCCNC(=S)N/N=C\C(C)=N\Nc1ccc(Cl)cc1
inactive: [1] 95 % of control | [2] 96 % of control | dose: 400.0 mg/kg/injection, schedule: Q04DX003 (ip), vehicle: saline 97 % of control

O=C(CC(=O)C(F)(F)F)c1cccs1.O=C(CC(=O)C(F)(F)F)c1cccs1.O=C(CC(=O)C(F)(F)F)c1cccs1.[Eu]
inactive: [4] 113 % of control | [5] 106 % of control | [6] 102 % of control

COc1ccc(-c2cn(-c3ccc(I)cc3)c3ncnc(N)c23)cc1
inactive: [15] 99 % of control | [16] 105 % of control | [17] 90 % of control

CCCC(=O)O
inactive: [4] 93 % of control | [5] 91 % of control | [6] 90 % of control

CN(C)c1nc(N(C)C)nc([N+]23CN4CN(CN(C4)C2)C3)n1
inactive: [13] 114 % of control | [14] 108 % of control | [18] 114 % of control

CC1(O)c2ccccc2-c2nc3ccccc3nc21 (stereo not given)
inactive: dose: 100.0 mg/kg/injection, schedule: Q04DX003 (ip), vehicle: saline sonified 110 % of control | dose: 200.0 mg/kg/injection, schedule: Q04DX003 (ip), vehicle: saline sonified 110 % of control | dose: 400.0 mg/kg/injection, schedule: Q04DX003 (ip), vehicle: saline sonified 100 % of control

CCCCC1(CCN(CC)c2ccccc2)C(=O)NC(=O)NC1=O
inactive: [10] 101 % of control | [11] 99 % of control | [12] 99 % of control

O=C(NC1C=Nc2ccc(Cl)cc2NC1=O)c1ccccc1Cl (stereo not given)
inactive: [15] 92 % of control | [16] 95 % of control | [17] 100 % of control

CN1CCC(O)(c2ccccc2)C(O)C1 (stereo not given)
inactive: [7] 95 % of control | [8] 93 % of control | [9] 90 % of control

O=c1[nH][nH]c(=S)n1-c1ccccc1
inactive: [13] 98 % of control | [14] 101 % of control | [18] 94 % of control | dose: 400.0 mg/kg/injection, schedule: Q01DX009 (ip), vehicle: saline with Tween-80 88 % of control

COC(=O)c1ccc(N2C(=O)C=CC2=O)cc1
inactive: dose: 0.75 mg/kg/injection, schedule: Q01DX009 (ip), vehicle: saline with Tween-80 100 % of control | dose: 1.5 mg/kg/injection, schedule: Q01DX009 (ip), vehicle: saline with Tween-80 100 % of control | dose: 3.0 mg/kg/injection, schedule: Q01DX009 (ip), vehicle: saline with Tween-80 120 % of control
